Calls of active or inactive are those of the source. No cut-off for these calls is given here.
Columns and labels:
Leishmania donovani [1] = experiment: Antileishmanial activity against Leishmania donovani MHOM/IN/80/Dd8 amastigotes harboring luciferase reporter gene infected in mouse J774 cells at 50 uM after 72 hrs by Steady-Glo luminescence assay relative to control; assay type: functional; settings: MHOM/IN/80/Dd8, J774, 72 h
[2] = Cytotoxicity against African green monkey Vero cells assessed as cell viability up to 100 uM after 72 hrs by MTT assay relative to control; assay type: cell-based; settings: chlorocebus sabaeus, read-out: Activity
[3] = Selectivity index, ratio of CC50 for African green monkey Vero cells to IC50 for antileishmanial activity against Leishmania donovani MHOM/IN/80/Dd8 amastigotes harboring luciferase reporter gene; assay type: toxicity; settings: read-out: Ratio CC50/IC50
[4] = Cytotoxicity against BALB/c mouse splenocytes assessed as cell viability at 200 uM after 72 hrs by MTT assay relative to control; assay type: cell-based, Splenocyte; settings: read-out: Activity
Leishmania donovani [5] = experiment: Antileishmanial activity against Leishmania donovani amastigotes infected in golden hamster assessed as reduction in parasite burden in liver at 50 mg/kg, ip administered on alternative days for 4 weeks starting at 4 weeks post-infection and measured after 2 week post last dose Giemsa staining-based assay relative to control; assay type: functional
J774 = experiment: Immunostimulatory activity in mouse J774 cells infected with Leishmania donovani promastigotes assessed as reduction in IL-10 cytokine production at 50 uM after 48 hrs by ELISA; assay type: functional, cell-based
Mus musculus = experiment: Immunostimulatory activity in BALB/c mouse infected with Leishmania donovani promastigotes assessed as induction of TNF-alpha cytokine production at 50 mg/kg administered for 5 days starting at 15 days post infection and measured after 3 to 7 weeks by ELISA; assay type: functional, organism-based
Leishmania donovani [6] = experiment: Induction of membrane depolarization in Leishmania donovani promastigotes assessed as increase in fluorescence at MIC by DiBAC4 dye based flow cytometry analysis; assay type: functional, organism-based; settings: TDE = time-dependent effect
Leishmania donovani [7] = experiment: Induction of mitochondrial dysfunction in Leishmania donovani promastigotes assessed as reduction in mitochondrial membrane potential at 50 uM after 48 hrs by JC-1 staining-based flow cytometric analysis (reference value: 7.73%); assay type: functional; set-up: scale not given: the % may be the effect or the level left
Leishmania donovani [8] = experiment: Induction of apoptosis in Leishmania donovani promastigotes assessed as late apoptotic cells at 50 uM after 24 hrs by Annexin-V/propidium iodide staining based flow cytometric method (reference value: 0.59%); assay type: functional
Leishmania donovani [9] = experiment: Induction of apoptosis in Leishmania donovani promastigotes assessed as late apoptotic cells at 50 uM after 48 hrs by Annexin-V/propidium iodide staining based flow cytometric method (reference value: 0.59%); assay type: functional
[10] = AUC(0 to infinity) in BALB/c mouse at 50 mg/kg, ip by HPLC analysis; assay type: ADME, organism-based; set-up: dose 50 mg/kg, route intraperitoneal, time infinity; settings: in vivo

For CCOC(=O)C(C(=O)c1ccc(OC)cc1)C(NC(C)=O)c1cccc2ccccc12 (configuration not stated), the inhibition at 50 µM (Leishmania donovani [1]) was 93.5%, the viability at 72 h [2] was over 93% and the selectivity ratio [3] was 25.7. For the same compound, the viability at 72 h, 200 µM [4] was over 84.3%, the inhibition in vivo at 50 mg/kg (Leishmania donovani [5]) was 88.2% and the Activity (J774) was “inactive”. The Activity (Mus musculus) was “inactive”, the Activity (Leishmania donovani [6]) was “Tde” and the Activity (Leishmania donovani [7]) was 67.97%. For the same compound, the Activity (Leishmania donovani [8]) was 0.8%, the Activity (Leishmania donovani [9]) was 2.65% and the AUC(0-inf) [10] was 1280 ng·h/mL.

Reference: ChEMBL document CHEMBL4406843, “β-Amino acid derivatives as mitochondrial complex III inhibitors of L. donovani: A promising chemotype targeting visceral leishmaniasis” (Eur J Med Chem, 2019)
